Laboratory results taken from PubChem BioAssay (NCI).
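Cells were grown in 96-well plates and exposed to each compound for 48 hours at five concentrations; endpoints were interpolated linearly between bracketing concentrations, or set to the highest concentration if not reached. The concentration for 50% growth inhibition is given as GI50. Definition used: TGI = concentration required for complete inhibition of growth.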

Tests used:
Experiment in all cases: NCI-60 cell line screen, 48 h; in the data active means GI50 below about 0.43 µM; inactive means the rest
786-0 renal = test system: 786-0 renal
A498 renal = test system: A498 renal
ACHN renal = test system: ACHN renal
BT-549 breast = test system: BT-549 breast
EKVX NSCLC = test system: EKVX NSCLC
HCC-2998 colon = test system: HCC-2998 colon
HOP-62 NSCLC = test system: HOP-62 NSCLC
HS 578T breast = test system: HS 578T breast
IGROV1 ovarian = test system: IGROV1 ovarian
MALME-3M melanoma = test system: MALME-3M melanoma
MCF7 breast = test system: MCF7 breast
MDA-MB-231 breast = test system: MDA-MB-231 breast
NCI-H226 lung = test system: NCI-H226 lung
NCI-H522 lung = test system: NCI-H522 lung
OVCAR-5 ovarian = test system: OVCAR-5 ovarian
OVCAR-8 ovarian = test system: OVCAR-8 ovarian
PC-3 prostate = test system: PC-3 prostate
RXF 393 renal = test system: RXF 393 renal
SF-268 CNS = test system: SF-268 CNS
SF-295 CNS = test system: SF-295 CNS
SF-539 CNS = test system: SF-539 CNS
SK-OV-3 ovarian = test system: SK-OV-3 ovarian
SN12C renal = test system: SN12C renal
SNB-19 CNS = test system: SNB-19 CNS
SNB-75 CNS = test system: SNB-75 CNS
T-47D breast = test system: T-47D breast
TK-10 renal = test system: TK-10 renal
U251 CNS = test system: U251 CNS
CAKI-1 renal = test system: CAKI-1 renal
CCRF-CEM leukemia = test system: CCRF-CEM leukemia
COLO 205 colon = test system: COLO 205 colon
DU-145 prostate = test system: DU-145 prostate
HOP-92 NSCLC = test system: HOP-92 NSCLC
HT29 colon = test system: HT29 colon
OVCAR-3 ovarian = test system: OVCAR-3 ovarian
OVCAR-4 ovarian = test system: OVCAR-4 ovarian
RPMI-8226 leukemia = test system: RPMI-8226 leukemia
SK-MEL-2 melanoma = test system: SK-MEL-2 melanoma
SW-620 colon = test system: SW-620 colon
UACC-257 melanoma = test system: UACC-257 melanoma
UACC-62 melanoma = test system: UACC-62 melanoma
A549 NSCLC = test system: A549 NSCLC
HCT-116 colon = test system: HCT-116 colon
HCT-15 colon = test system: HCT-15 colon
HL-60(TB) leukemia = test system: HL-60(TB) leukemia
K-562 leukemia = test system: K-562 leukemia
LOX IMVI melanoma = test system: LOX IMVI melanoma
MOLT-4 leukemia = test system: MOLT-4 leukemia
NCI-H23 lung = test system: NCI-H23 lung
NCI-H460 lung = test system: NCI-H460 lung
NCI/ADR-RES ovarian = test system: NCI/ADR-RES ovarian
SK-MEL-5 melanoma = test system: SK-MEL-5 melanoma
SR leukemia = test system: SR leukemia
UO-31 renal = test system: UO-31 renal

CN1CCOCCOCCOc2ccccc2NC(=O)c2nc(cnc2N)-c2ccc(cc2)S1(=O)=O
49.4 µM: TGI (TK-10 renal)
3.93 µM: TGI (A498 renal)
23.3 µM: TGI (786-0 renal)
> 100 µM: TGI (ACHN renal) | TGI (BT-549 breast) | TGI (EKVX NSCLC) | TGI (HCC-2998 colon) | TGI (HS 578T breast) | TGI (IGROV1 ovarian) | TGI (MALME-3M melanoma) | TGI (MCF7 breast) | TGI (MDA-MB-231 breast) | TGI (NCI-H226 lung) | TGI (NCI-H522 lung) | TGI (OVCAR-5 ovarian) | TGI (OVCAR-8 ovarian) | TGI (PC-3 prostate) | TGI (SF-268 CNS) | TGI (SF-295 CNS) | TGI (SF-539 CNS) | TGI (SK-OV-3 ovarian) | TGI (SN12C renal) | TGI (SNB-19 CNS) | TGI (T-47D breast) | TGI (U251 CNS)
46.2 µM: TGI (HOP-62 NSCLC)
inactive: GI50 (BT-549 breast) 7.77 µM | GI50 (EKVX NSCLC) 60.2 µM | GI50 (HCC-2998 colon) > 100 µM | GI50 (HOP-62 NSCLC) 14.7 µM | GI50 (HS 578T breast) 3.56 µM | GI50 (MALME-3M melanoma) > 100 µM | GI50 (MDA-MB-231 breast) 32.4 µM | GI50 (NCI-H226 lung) 59.9 µM | GI50 (NCI-H522 lung) 5.55 µM | GI50 (OVCAR-5 ovarian) > 100 µM | GI50 (OVCAR-8 ovarian) 7.1 µM | GI50 (PC-3 prostate) > 100 µM | GI50 (RXF 393 renal) 1.59 µM | GI50 (SF-268 CNS) 11.1 µM | GI50 (SF-295 CNS) 4.52 µM | GI50 (SK-OV-3 ovarian) 7.12 µM | GI50 (SN12C renal) > 100 µM | GI50 (SNB-19 CNS) 16.6 µM | GI50 (SNB-75 CNS) 2.85 µM | GI50 (T-47D breast) > 100 µM | GI50 (TK-10 renal) 11.3 µM | GI50 (U251 CNS) 5.16 µM
17.7 µM: TGI (SNB-75 CNS)
21.9 µM: TGI (RXF 393 renal)
active: GI50 (786-0 renal) 0.0398 µM | GI50 (A498 renal) 0.0241 µM | GI50 (ACHN renal) 0.0504 µM | GI50 (IGROV1 ovarian) 0.0719 µM | GI50 (MCF7 breast) 0.0397 µM | GI50 (SF-539 CNS) 0.0371 µM

CCOC(=O)C1=CSC2=NC3=C(CCC/C3=C\c3cc(OC)c(OC)c(OC)c3)C(c3cc(OC)c(OC)c(OC)c3)N12 (stereo not drawn)
1.67 µM: TGI (RPMI-8226 leukemia)
active: GI50 (OVCAR-8 ovarian) 0.376 µM | GI50 (RPMI-8226 leukemia) 0.333 µM
3.74 µM: TGI (CCRF-CEM leukemia)
inactive: GI50 (786-0 renal) > 100 µM | GI50 (BT-549 breast) 2.64 µM | GI50 (CAKI-1 renal) 6.77 µM | GI50 (CCRF-CEM leukemia) 0.47 µM | GI50 (COLO 205 colon) 3.05 µM | GI50 (DU-145 prostate) 3.48 µM | GI50 (EKVX NSCLC) > 100 µM | GI50 (HOP-62 NSCLC) 1.43 µM | GI50 (HOP-92 NSCLC) 0.818 µM | GI50 (HS 578T breast) 2.47 µM | GI50 (HT29 colon) 1.34 µM | GI50 (MCF7 breast) 2.66 µM | GI50 (MDA-MB-231 breast) 3.2 µM | GI50 (NCI-H226 lung) 2.4 µM | GI50 (OVCAR-3 ovarian) 2.96 µM | GI50 (OVCAR-4 ovarian) 1.32 µM | GI50 (OVCAR-5 ovarian) > 100 µM | GI50 (PC-3 prostate) 0.751 µM | GI50 (SK-MEL-2 melanoma) > 100 µM | GI50 (SNB-75 CNS) 3.74 µM | GI50 (SW-620 colon) 1.54 µM | GI50 (T-47D breast) 3.83 µM | GI50 (TK-10 renal) 4.33 µM | GI50 (UACC-257 melanoma) 1.73 µM | GI50 (UACC-62 melanoma) 2.71 µM
> 100 µM: TGI (786-0 renal) | TGI (BT-549 breast) | TGI (CAKI-1 renal) | TGI (COLO 205 colon) | TGI (DU-145 prostate) | TGI (EKVX NSCLC) | TGI (HOP-62 NSCLC) | TGI (HS 578T breast) | TGI (HT29 colon) | TGI (MCF7 breast) | TGI (MDA-MB-231 breast) | TGI (NCI-H226 lung) | TGI (OVCAR-3 ovarian) | TGI (OVCAR-4 ovarian) | TGI (OVCAR-5 ovarian) | TGI (OVCAR-8 ovarian) | TGI (PC-3 prostate) | TGI (SK-MEL-2 melanoma) | TGI (SNB-75 CNS) | TGI (SW-620 colon) | TGI (T-47D breast) | TGI (TK-10 renal) | TGI (UACC-257 melanoma) | TGI (UACC-62 melanoma)
7.5 µM: TGI (HOP-92 NSCLC)

Cc1ccc(-c2nc(C(Cl)Cl)nc3cc(C)nn23)cc1
7.64 µM: TGI (HOP-92 NSCLC)
6.71 µM: TGI (SF-295 CNS)
4.7 µM: TGI (A498 renal)
2.36 µM: TGI (RXF 393 renal)
> 100 µM: TGI (786-0 renal) | TGI (BT-549 breast) | TGI (CCRF-CEM leukemia) | TGI (HCT-116 colon) | TGI (HT29 colon) | TGI (K-562 leukemia) | TGI (LOX IMVI melanoma) | TGI (MCF7 breast) | TGI (MDA-MB-231 breast) | TGI (MOLT-4 leukemia) | TGI (NCI-H226 lung) | TGI (NCI-H522 lung) | TGI (OVCAR-8 ovarian) | TGI (PC-3 prostate) | TGI (RPMI-8226 leukemia) | TGI (SF-268 CNS) | TGI (SF-539 CNS) | TGI (SK-MEL-2 melanoma) | TGI (SK-MEL-5 melanoma) | TGI (SN12C renal) | TGI (SNB-19 CNS) | TGI (SR leukemia) | TGI (T-47D breast) | TGI (TK-10 renal) | TGI (UACC-257 melanoma) | TGI (UACC-62 melanoma) | TGI (UO-31 renal)
5.46 µM: TGI (HL-60(TB) leukemia)
4.61 µM: TGI (HCT-15 colon)
inactive: GI50 (786-0 renal) > 100 µM | GI50 (A498 renal) 1.75 µM | GI50 (A549 NSCLC) 1.33 µM | GI50 (ACHN renal) 0.783 µM | GI50 (BT-549 breast) 9.68 µM | GI50 (CAKI-1 renal) 1.59 µM | GI50 (CCRF-CEM leukemia) 4.82 µM | GI50 (COLO 205 colon) 1.04 µM | GI50 (DU-145 prostate) 0.432 µM | GI50 (EKVX NSCLC) 2.19 µM | GI50 (HCC-2998 colon) 1.18 µM | GI50 (HCT-116 colon) 2.09 µM | GI50 (HCT-15 colon) 1.24 µM | GI50 (HL-60(TB) leukemia) 1.33 µM | GI50 (HOP-62 NSCLC) 1.31 µM | GI50 (HOP-92 NSCLC) 1.95 µM | GI50 (HT29 colon) 0.458 µM | GI50 (K-562 leukemia) 2.3 µM | GI50 (LOX IMVI melanoma) 4.01 µM | GI50 (MCF7 breast) 1.97 µM | GI50 (MDA-MB-231 breast) 2.34 µM | GI50 (MOLT-4 leukemia) 1.82 µM | GI50 (NCI-H226 lung) > 100 µM | GI50 (NCI-H23 lung) 0.742 µM | GI50 (NCI-H460 lung) 0.515 µM | GI50 (NCI-H522 lung) 2.14 µM | GI50 (NCI/ADR-RES ovarian) 1.18 µM | GI50 (OVCAR-3 ovarian) 1.47 µM | GI50 (OVCAR-4 ovarian) 1.07 µM | GI50 (OVCAR-5 ovarian) 2.22 µM | GI50 (OVCAR-8 ovarian) 1.67 µM | GI50 (PC-3 prostate) 2.55 µM | GI50 (RPMI-8226 leukemia) 5.02 µM | GI50 (RXF 393 renal) 0.673 µM | GI50 (SF-268 CNS) 2.69 µM | GI50 (SF-295 CNS) 2.1 µM | GI50 (SF-539 CNS) 4.14 µM | GI50 (SK-MEL-2 melanoma) > 100 µM | GI50 (SK-MEL-5 melanoma) 3.5 µM | GI50 (SK-OV-3 ovarian) 2.28 µM | GI50 (SN12C renal) 5.88 µM | GI50 (SNB-19 CNS) 2.34 µM | GI50 (SNB-75 CNS) 1.48 µM | GI50 (T-47D breast) 2.86 µM | GI50 (TK-10 renal) 3.55 µM | GI50 (UACC-257 melanoma) 3.26 µM | GI50 (UACC-62 melanoma) 3.12 µM | GI50 (UO-31 renal) 3.38 µM
2.75 µM: TGI (NCI-H23 lung)
5.42 µM: TGI (CAKI-1 renal)
2.59 µM: TGI (HCC-2998 colon)
3.42 µM: TGI (OVCAR-3 ovarian)
6.72 µM: TGI (OVCAR-5 ovarian)
5.73 µM: TGI (NCI/ADR-RES ovarian)
active: GI50 (SR leukemia) 0.342 µM
6.21 µM: TGI (A549 NSCLC)
3.01 µM: TGI (NCI-H460 lung)
8.62 µM: TGI (SK-OV-3 ovarian)
8.58 µM: TGI (HOP-62 NSCLC)
2.81 µM: TGI (DU-145 prostate)
3.87 µM: TGI (OVCAR-4 ovarian)
3.41 µM: TGI (COLO 205 colon)
3.6 µM: TGI (ACHN renal)
6.45 µM: TGI (EKVX NSCLC)
8.39 µM: TGI (SNB-75 CNS)
